Source: publication PMC2829070 (PLoS Pathogens, 2010)
“And” between values parts separate entries of the source, which are not always exact repeats. Identical values can stand only once.

Key:
[1] = biological target: NA of Ind3006 (A/Indonesia/UT3006/05, H5N1) (Influenza A virus, UniProt I6YWY9); assay: biochemical
[2] = system: NA of A/New Caledonia/20/99 (H1N1); type: binding, influenza A virus (H1N1)
[3] = system: NA of A/Panama/2007/99 (H3N2); type: binding, influenza A virus (H3N2)
NA of B/Mie/1/93 = type: binding, influenza B virus
HN30408cl7 (H5N1) [4] = type: in vivo, BALB/c mice; conditions: 21 days
Ind3006 (H5N1) [5] = type: in vivo, BALB/c mice; conditions: 21 days
HN30408cl7 (H5N1) [6] = system: HN30408cl7 (H5N1); set-up: species or system BALB/c mice; Virus titers in Lungs, Day 6 / Virus titers in Lungs, Day 9 / Virus titers in Brain, Day 9: unit not given here; conditions: mouse, in vivo
Ind3006 (H5N1) [7] = system: Ind3006 (H5N1); set-up: species or system BALB/c mice; Virus titers in Lungs, Day 6 / Virus titers in Brain, Day 6: unit not given here; conditions: mouse, in vivo
HN30408cl7 (H5N1) [8] = system: HN30408cl7 (H5N1); set-up: species or system BALB/c mice; conditions: mouse, in vivo
HN30408cl7 (H5N1) [9] = system: HN30408cl7 (H5N1); set-up: species or system BALB/c mice; Virus titer in Lungs, Day 3 / Virus titer in Lungs, Day 6: unit not given here; conditions: mouse, in vivo

Molecule	IC50 [1]	Slope of the dissociation curve [2]	Slope of the dissociation curve [3]	Slope of the dissociation curve (NA of B/Mie/1/93)	mice protected from lethal infection (HN30408cl7 (H5N1) [4])	mice protected from lethal infection (Ind3006 (H5N1) [5])	Virus titers in Brain, Day 3 (HN30408cl7 (H5N1) [6])	Virus titers in Brain, Day 3 (Ind3006 (H5N1) [7])	Virus titers in Brain, Day 6 (Ind3006 (H5N1) [7])	Virus titers in Brain, Day 9 (Ind3006 (H5N1) [7])	Virus titers in Lungs, Day 6 (Ind3006 (H5N1) [7])	Virus titers in Lungs, Day 9 (Ind3006 (H5N1) [7])	prophylactic efficacy (survival) (HN30408cl7 (H5N1) [8])	Virus titer in Brain, Day 3 (HN30408cl7 (H5N1) [9])	further results
CC(=O)N[C@H]1[C@H]([C@H](O)[C@H](O)CO)OC(C(=O)O)=C[C@@H]1N=C(N)N [Zanamivir]	0.07 nM	140.10	2.10	184.10	–	–	–	–	–	–	–	–	–	–	–
CCC(CC)O[C@@H]1C=C(C(=O)O)C[C@H](N)[C@H]1NC(C)=O [Oseltamivir carboxylate]	10 nM	173.34	6.97	381.21	–	–	–	–	–	–	–	–	–	–	recovery of NA activity (NA of B/Mie/1/93): almost fully recovered
[H]/N=C(\N)N[C@H]1C=C(C(=O)O)O[C@@H]([C@H](OC)[C@H](O)COC(=O)CCCCCCC)[C@@H]1NC(C)=O [CS-8958]	–	–	–	–	90%	70%	<1.6	<1.6	<1.6	<1.6	7.2±0.1 and 4.5±1.4	<1.7	limited	<1.6	Virus titers in Brain, Day 6 (HN30408cl7 (H5N1) [6]): 2.0±0.3 and <1.6; protection from the lethal infection (prophylaxis) (HN30408cl7 (H5N1) [8]): significantly protected
CCOC(=O)C1=C[C@@H](OC(CC)CC)[C@H](NC(C)=O)[C@@H](N)C1 [Oseltamivir phosphate]	–	–	–	–	less than half	less than half	<1.6	<1.6	3.1±0.3 and 2.6±0.1 and 3.2±1.2 and 3.3±0.9	<1.6	7.5±0.2 and 7.4±0.2 and 7.4±0.1 and 7.2±0.1	<1.7	limited	<1.6	mice saved from lethal infection (HN30408cl7 (H5N1) [4]): 90%; mice saved from lethal infection (Ind3006 (H5N1) [5]): 50%; Virus titers in Brain, Day 9 (HN30408cl7 (H5N1) [6]): 4.8 and 4.7±0.4 and 3.7 and 5.1; Virus titers in Lungs, Day 3 (HN30408cl7 (H5N1) [6]): 6.0±0.1 and 5.0±0.6 and 6.2±0.2; Virus titers in Lungs, Day 6 (HN30408cl7 (H5N1) [6]): 5.2±0.1 and 5.5±0.4 and 3.8±0.5 and 6.4±0.6; Virus titers in Lungs, Day 9 (HN30408cl7 (H5N1) [6]): 4.9±1.8 and 4.7±0.6 and 4.7±1.4 and 6.1; Virus titers in Lungs, Day 3 (Ind3006 (H5N1) [7]): 7.5±0.1 and 7.2±0.1 and 7.1±0.2; Virus titer in Brain, Day 6 (HN30408cl7 (H5N1) [9]): 2.6 and <1.6; Virus titer in Lungs, Day 3 (HN30408cl7 (H5N1) [9]): 5.5±0.7 and 4.3±1.9 and 3.2±2.9 and 5.8±0.8; Virus titer in Lungs, Day 6 (HN30408cl7 (H5N1) [9]): 5.6±0.4 and 6.1±0.2 and 6.0±0.0 and 6.0±0.4
Peramivir	–	43.10	0.19	180.66	–	–	–	–	–	–	–	–	–	–	Slope difference [2]: -456.52; Slope difference [3]: -48.81; Slope difference (NA of B/Mie/1/93): -773.42
